# Data from patent publication US20050196806A1, “Prostate specific antigen oligoepitope peptide” (The Government of the USA, as represented by the Secretary, …, priority 1996, published 2005).
# Marks after values point to notes of the source that are not given here. Residues, ends and D or L forms follow the SMILES beside them.
# Legend:
# CIR-A2 cells = assay: Effects of protease inhibitors on CTL mediated killing of CIRA2 cells pulsed with PSA-OP; assay type: cell-based, human; conditions: Donor-1 PSA-OP CTL, 25:1 E:T ratio; for % of Specific Release (+/−SD), CIRA2 cells, No peptide: Medium 7.7 (1.9)
# Experimental: Various target cells were labeled with 50 μCi of ^111In-oxyquinoline (Medi-Physics Inc., Arlington, Ill.) for 15 minutes at room temperature. Target cells (0.2×10^4) in 100 μl of complete medium (see below) were added to each of 96 wells in flat bottom assay plates (Corning Costar Corp.). The labeled targets were incubated with peptides at a final concentration of 50 μg/ml for 60 min at 37° C. in 5% CO2 before adding effector cells. Effector cells were suspended in 100 μl of complete medium supplemented with 5% pooled human AB serum and added to target cells. The plates were incubated at 37° C. for 16 hours. Supernatants were harvested for γ-counting using harvester frames (Skatron, Inc. Sterling, Va.). Determinations were carried out in triplicate and standard deviations were calculated. All experiments were carried out three times. Specific Lysis was calculated using the following formula: % of Specific Release=observed release(cpm)−spontaneous release(cpm) total releae(cpm)−spontaneous release(cpm)×100
# […] Peptide pulsed target cells were incubated with protease inhibitors. Protease inhibitors used were E64, carboxypeptidase inhibitor, plummer inhibitor, and captopril (angiotension converting enzyme inhibitor) at various concentrations (10^−5, 10^−6, 10^−7 M). CTL activity was determined by the CTL assay described above.
# [1] = Solubility of synthesized peptide; assay type: physicochemical; conditions: in 1% DMSO
# Experimental: PSA-OP was synthesized on an Applied Biosystems Model 432A peptide synthesizer. It operates on a 25 μmole scale and employs f-moc chemistry and feedback monitoring to control the coupling of each successive amino acid to the growing chain. The completed peptide is cleaved off the synthesis resin with -trifluoroacetic acid and thioanisole/ethanedithiol as scavengers. Acid salts are extracted with tert-butyl methyl ether and the peptide is lyophilized from water to give approximately 64 mg powder. The powder is soluble at 2 mg/ml in 1% DMSO and sterile-filtered aliquots show a single sharp peak on C18 reverse phase high performance liquid chromatography.
# human HLA A2 molecules = target: T1, human HLA A2 molecules (Homo sapiens, UniProt P04439, D140Y/D185E/D98H/E176V/E277Q/G131W/G231S/I119V/I121R/I166T/I218V/L300P/L318F/N151K/N90K/P208A/P217A/Q86G/Q94H/R138H/R169H/T345S); assay: T2 cell binding assay (PSA peptide binding assay, Example II); conditions: peptides at 50 μg/ml, None = 127.25
# T1 construct: endogenous in cells; host or cells: T2 cells (174CEM.T2)
# From the text: The amino acid sequence of human PSA was scanned using a predictive algorithm that combines a search for anchor residues with numerical assignments to all residues at all positions. The T2 cell binding assay was then used to determine which peptides bound human HLA A2 molecules. […] Table 7 gives the amino acid sequence of these peptides and compares them to corresponding sequences of HGK and PKA.
# [2] = target: T2, HLA class-I A2001 molecule (Homo sapiens, UniProt P04439, D140Y/D185E/D98H/E176V/E277Q/G131W/G231S/I119V/I121R/I166T/I218V/L300P/L318F/N151K/N90K/P208A/P217A/Q86G/Q94H/R138H/R169H/T345S); assay: Peptide binding to HLA-A2: upregulation on T2 cells by flow cytometry (Example IV); conditions: T2 cells incubated 24 h with peptide 50 μg/ml/10^6 cells; 100 cut off value for positivity; None = 16.88
# T2 construct: endogenous in cells; host or cells: T2 cells (174CEM.T2, transport deletion mutant)
# Experimental: 1×10^6 cells in serum-free IMDM were incubated with peptides at the concentration of 50 μg/ml in 24-well culture plates at 37° C. in 5% CO2. Flow cytometry for peptide binding was performed using T2 cells and single color analysis. After cells were washed three times in DPBS as above, they were incubated for 1 hr with HLA-A2 specific MAb A2,69 (One lambda, Inc., Canoga Park, Calif.), using 10 μl of a 1× working dilution per 10^6 cells. MOPC-21 (Cappel/Organon Teknika Corp.) was used as isotype control. The cells were then washed three times and incubated with 1:100 dilution of fluorescein (FITC) labeled anti-mouse IgG (Kirkegaard & Perry, Gaithersburg, Md.). Analysis was carried out using the FACScan as described above. Cells were maintained on ice during all cell preparation and staining unless otherwise stated.
# [3] = system: PBMC from normal healthy donors expressing the HLA A2 class 1 allele; assay: Establishment of human T cell lines by pulsing PBMC with peptide and IL-2; assay type: cell-based; conditions: donors with T cell line / donors tested; PBMC pulsed with peptide and IL-2
# From the text: Cytotoxic T-cells specific for PSA can be established from peripheral blood mononuclear cells (PBMC) obtained from a host immunized as discussed above. For example, PBMC can be separated by using Lymphocyte Separation Medium gradient (Organon Teknika, Durham, N.C., USA) as previously described [Boyum et al, Scand J. Clin Lab Invest 21:77-80 (1968)]. Washed PBMC are resuspended in a complete medium, for example, RPMI 1640 (GIBCO) supplemented with 10% pool human AB serum (Pel-Freeze Clinical System, Brown Dear, Wisc., USA), 2 mM glutamine, 100 U/ml penicillin and 100 μg/ml of streptomycin (GIBCO). PBMC at a concentration of about 2×10^5 cells in complete medium in a volume of, for example 100 μl are added into each well of a 96-well flat-bottom assay plate (Costar, Cambridge, Mass., USA). The antigen or peptides are added into the cultures in a final concentration of about 50 μg/ml and incubated at 37° C. in a humidified atmosphere containing 5% CO2 for 5 days. After removal of peptide containing media, the cultures are provided with fresh human IL-2 (10 U/ml) after 5 days and replenished with IL-2 containing medium every 3 days. Primary cultures are restimulated with the same peptide (50 μg/ml) on day 16. 5×10^5 irradiated (4,000 rad) autologous PBMC are added in a volume of about 50 μl complete medium as antigen-presenting cells (APC). […]
# T2 cells = assay: Cytotoxic assay of PSA peptide specific T cells against T2 cells; assay type: cell-based, human; conditions: 24 hour assay, E:T ratio 25:1
# [4] = system: LNCAP PSA expressing human prostate cancer cell line; assay: Cytotoxic assay of PSA peptide specific T cells against LNCAP (Example III); assay type: cell-based; conditions: 24 hour assay, E:T ratio 25:1
# From the text: (§1) Four of the T cell lines derived from three different individuals were then assays for their ability to lyse human cells (Table 9). […] No lysis was seen using the PSA negative human colon cancer cell line COLO-205. While 80% lysis was seen using the LNCAP PSA expressing human prostate cancer cell line. When employing the NK target K562, which measures non-specific lysis due to NK cell activity, only 23% lysis was obtained. Similar results were seen employing a different T cell line obtained from the same patient which was derived from pulsing with PSA peptide 154-163. Two additional T cell lines which were derived from peptide 154-163 were also analyzed. One was from a normal donor (T-1538) and one was from a prostate cancer patient (T-PC2; T Donor C).
# NK target K562 = assay: Cytotoxic assay of PSA peptide specific T cells against K562; assay type: cell-based, human; conditions: 24 hour assay, E:T ratio 25:1
# From the text: as §1
# [5] = system: PSA negative human colon cancer cell line COLO-205; assay: Cytotoxic assay of PSA peptide specific T cells against COLO-205; assay type: cell-based; conditions: 24 hour assay, E:T ratio 25:1
# From the text: as §1
# [6] = system: PBLs isolated from male HLA-A2001+ donors; assay: Limiting dilution analysis of CTL precursor frequency; assay type: cell-based, human; conditions: for Number of precursors (precursor frequency): calculated by X^2 minimization; for % of negative microcolonies, 10,000: two cycles of stimulation with the peptide, targets CIRA2 pulsed 3 h, cold K562
# Experimental: Limiting dilution assays were used for the determination of precursor frequencies to PSA-1, PSA-3 and PSA-OP. Various number of PBMCs were seeded in 96-well flat bottom plates (Coming Costar) with 1×10^4 autologous PBMC irradiated with 4,000 rads and incubated with 50 μg/ml of PSA peptide. Cells were cultured in complete medium as described previously. At least 48 cultures were set up for each dilution. Cultures were incubated for 5 days at 37° C. in a humidified atmosphere containing 5% CO2 and then provided with fresh medium containing human IL-2 for 11 days, with IL-2-containing medium being replenished every 72 hr as shown below for CTLs generation. After two cycles of stimulation specific cytotoxic activity was tested for each single well, against CIR-A2 target cells with or without incubation with peptide. Cytotoxic assays were similar to the method described above. The unlabelled K562 cells were added to the microwells containing responder cells. After 1 hr incubation at 37° C. target cells were added into each well and incubated for 6 hrs at 37° C. Precursor frequencies were calculated by X^2 minimization.
# [7] = T-Donor C T-cell line (prostate cancer patient)
compound,measurement,setting,value
CC(C)C[C@H](NC(=O)[C@H]1O[C@@H]1C(=O)O)C(=O)NCCCCN=C(N)N [E 64],"% of Specific Release (+/−SD), CIRA2 cells pulsed with PSA-OP peptide [50 μg/ml]",CIR-A2 cells; inhibitor 10^−6 M,13.7 (0.6) %
same,"% of Specific Release (+/−SD), CIRA2 cells, No peptide",CIR-A2 cells; inhibitor 10^−6 M,11.9 (1.7) %
NC(N)=NCCSCC(CS)C(=O)O (centres unmarked) [Plummer's],"% of Specific Release (+/−SD), CIRA2 cells, No peptide",CIR-A2 cells; inhibitor 10^−5 M,10.7 (2.0) %
CC[C@H](C)[C@H](NC(=O)[C@@H](NC(=O)[C@H](Cc1c[nH]cn1)NC(=O)[C@H](CC(C)C)NC(=O)[C@H](CC(=O)O)NC(=O)[C@@H](NC(=O)[C@H](CS)NC(=O)[C@H](CCC(N)=O)NC(=O)[C@H](CC(C)C)NC(=O)[C@H](CCCCN)NC(=O)[C@H](CCCCN)NC(=O)[C@@H]1CCCN1C(=O)[C@@H](NC(=O)[C@H](CC(C)C)NC(=O)[C@@H](N)Cc1ccccc1)[C@@H](C)O)C(C)C)C(C)C)C(=O)N[C@@H](CO)C(=O)N[C@@H](CC(N)=O)C(=O)N[C@@H](CC(=O)O)C(=O)N[C@H](C(=O)N[C@@H](CS)C(=O)N[C@@H](C)C(=O)N[C@@H](CCC(N)=O)C(=O)N[C@H](C(=O)N[C@@H](Cc1c[nH]cn1)C(=O)N1CCC[C@H]1C(=O)N[C@@H](CCC(N)=O)C(=O)N[C@@H](CCCCN)C(=O)N[C@H](C(=O)N[C@H](C(=O)N[C@@H](CCCCN)C(=O)O)[C@@H](C)O)C(C)C)C(C)C)C(C)C [PSA-OP] (H-FLTPKKLQCVDLHVISNDVCAQVHPQKVTK-OH; N-terminus and C-terminus assumed),solubility,[1],2000 µg/mL
"KLQCVDLHV [PSA 146-154, ID No. 9]","MAb A2, 69: Mean channel fluorescent intensity",human HLA A2 molecules,223.97
same,"MAb A2, 69: Mean channel fluorescent intensity",human HLA A2 molecules; listed as 146-154,positive
"PSA [42-51]: negative control peptide, unable to bind HLA class I-A2 [reference compound]",T2 binding: relative fluorescence (mean intensity) with anti-HLA-A2 mAb,[2],51.44
"VISNDVCAQV [PSA-3, ID No. 2]","MAb A2, 69: Mean channel fluorescent intensity",human HLA A2 molecules; listed as 154-163,positive
same,"MAb A2, 69: Mean channel fluorescent intensity",human HLA A2 molecules; listed as PSA 154-163,182.30
same,T2 binding: relative fluorescence (mean intensity) with anti-HLA-A2 mAb,[2],123.71
same,T cell lines established from normal donors,[3],6/6
same,"% specific release (lysis), T2","T2 cells; T-Donor A T-cell line derived with the peptide, 111In release",16%
same,"% specific release (lysis), T2 + peptide",T2 cells; T-Donor A T-cell line,35^b %
same,"% specific release (lysis), T2",T2 cells; T-Donor B T-cell line,10%
same,"% specific release (lysis), T2 + peptide",T2 cells; T-Donor B T-cell line,40^b %
same,"% specific release (lysis), T2",T2 cells; [7],15%
same,"% specific release (lysis), T2 + peptide",T2 cells; [7],35^b %
same,"% specific release (lysis), LNCAP",[4]; T-Donor A T-cell line,60^b %
same,"% specific release (lysis), LNCAP",[4]; T-Donor B T-cell line,29^b %
same,"% specific release (lysis), LNCAP",[4]; [7],35^b %
same,"% specific release (lysis), K562",NK target K562; T-Donor A T-cell line,22%
same,"% specific release (lysis), K562",NK target K562; T-Donor B T-cell line,3%
same,"% specific release (lysis), K562",NK target K562; [7],2%
same,"% specific release (lysis), COLO-205",[5]; T-Donor A T-cell line,10%
same,"% specific release (lysis), COLO-205",[5]; T-Donor B T-cell line,10%
same,"% specific release (lysis), COLO-205",[5]; [7],8%
same,"% of negative microcolonies, 500",[6]; T/PSA-OP 2 donor,100.0%
same,"% of negative microcolonies, 1,000",[6]; T/PSA-OP 2 donor,100.0%
same,"% of negative microcolonies, 5,000",[6]; T/PSA-OP 2 donor,97.8%
same,Number of precursors (precursor frequency),[6]; T/PSA-OP 2 donor,1/244200
same,"% of negative microcolonies, 10,000",[6]; T/PSA-OP 2 donor,95.8%
same,"% of negative microcolonies, 500",[6]; T/PSA-OP 3 donor,97.6%
same,"% of negative microcolonies, 1,000",[6]; T/PSA-OP 3 donor,95.8%
same,"% of negative microcolonies, 5,000",[6]; T/PSA-OP 3 donor,93.7%
same,Number of precursors (precursor frequency),[6]; T/PSA-OP 3 donor,1/59279
same,"% of negative microcolonies, 10,000",[6]; T/PSA-OP 3 donor,89.6%
"C[C@H](CS)C(=O)N1CCC[C@H]1C(=O)O [Captopril, captopril]","% of Specific Release (+/−SD), CIRA2 cells pulsed with PSA-OP peptide [50 μg/ml]",CIR-A2 cells; inhibitor 10^−6 M,11.0 (2.6) %
same,"% of Specific Release (+/−SD), CIRA2 cells, No peptide",CIR-A2 cells; inhibitor 10^−6 M,15.8 (2.1) %
